# In patent US20240400586A1, “HETEROARYL DERIVATIVE PARP INHIBITOR AND USE THEREOF” (HAISCO PHARMACEUTICAL GROUP CO., LTD., priority 2021, published 2024):
# Tests used:
# PARP5A = PARP5A (Homo sapiens (Human), UniProt O95271); assay: PARP5A enzyme activity test; assay type: biochemical
# Description: (§1) PARP2, PARP5A, PARP5B, PARP6, PARP7, PARP14 and PARP15 chemical fluorescence detection kits were purchased from BPS Bioscience. The histone solution in the kit was diluted 5× with 1×PBS, and 25 μL of the diluted histone solution was added to a microwell plate and incubated overnight at 4° C. After the incubation, the plate was washed three times with PBST (0.05% Tween-20). 100 μL of the blocking solution was added to the microwell plate and incubated at 25° C. for 90 minutes. After the incubation, the plate was washed three times with PBST. […] 5 μL of the diluted PARP enzyme was added to the microwell plate, and the reaction system was incubated at 25° C. for 60 minutes.
# (§2) After the incubation, the plate was washed three times with PBST. Streptavidin-HRP was diluted 50× with a blocking solution, and 25 μL of the diluent was added to the microwell plate and incubated at 25° C. for 30 minutes. After the incubation, the plate was washed three times with PBST. ELISA ECL substrate A and substrate B were mixed at a ratio of 1:1 (v/v), 25 μL of the mixture was added to the microwell plate, and the chemiluminescence value was read.
# (§3) Curve fitting was performed by four parameters (log(inhibitor) vs. response—Variable slope) using GraphPad Prism software, and the IC50 value was calculated.
# PARP5B = PARP5B (Homo sapiens (Human), UniProt Q9H2K2); assay: PARP5B enzyme activity test; assay type: biochemical
# Description: as §1, §2, §3
# PARP7 = PARP7 (Homo sapiens (Human), UniProt Q7Z3E1); assay: PARP7 enzyme activity test; assay type: biochemical
# Chain of PARP7 (Q7Z3E1 whole entry): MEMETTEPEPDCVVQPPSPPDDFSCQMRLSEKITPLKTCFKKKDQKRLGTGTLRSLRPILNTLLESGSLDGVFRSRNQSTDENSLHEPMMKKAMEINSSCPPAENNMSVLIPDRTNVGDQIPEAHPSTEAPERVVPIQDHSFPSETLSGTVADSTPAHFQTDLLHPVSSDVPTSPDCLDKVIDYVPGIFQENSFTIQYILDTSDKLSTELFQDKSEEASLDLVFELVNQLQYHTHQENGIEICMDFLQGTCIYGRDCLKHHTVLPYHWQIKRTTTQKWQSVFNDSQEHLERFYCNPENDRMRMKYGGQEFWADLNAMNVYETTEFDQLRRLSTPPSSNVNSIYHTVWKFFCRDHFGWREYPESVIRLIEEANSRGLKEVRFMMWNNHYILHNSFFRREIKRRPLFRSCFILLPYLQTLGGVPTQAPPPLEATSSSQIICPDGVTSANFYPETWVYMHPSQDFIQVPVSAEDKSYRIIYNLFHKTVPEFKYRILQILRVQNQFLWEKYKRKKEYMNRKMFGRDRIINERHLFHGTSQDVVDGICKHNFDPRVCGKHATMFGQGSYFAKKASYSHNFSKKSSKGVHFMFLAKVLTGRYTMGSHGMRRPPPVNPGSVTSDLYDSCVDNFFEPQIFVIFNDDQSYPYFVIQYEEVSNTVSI
# Description: as §1, §2, §3
# PARP15 = PARP15 (Homo sapiens (Human), UniProt Q460N3); assay: PARP15 enzyme activity test; assay type: biochemical
# Chain of PARP15 (Q460N3 whole entry): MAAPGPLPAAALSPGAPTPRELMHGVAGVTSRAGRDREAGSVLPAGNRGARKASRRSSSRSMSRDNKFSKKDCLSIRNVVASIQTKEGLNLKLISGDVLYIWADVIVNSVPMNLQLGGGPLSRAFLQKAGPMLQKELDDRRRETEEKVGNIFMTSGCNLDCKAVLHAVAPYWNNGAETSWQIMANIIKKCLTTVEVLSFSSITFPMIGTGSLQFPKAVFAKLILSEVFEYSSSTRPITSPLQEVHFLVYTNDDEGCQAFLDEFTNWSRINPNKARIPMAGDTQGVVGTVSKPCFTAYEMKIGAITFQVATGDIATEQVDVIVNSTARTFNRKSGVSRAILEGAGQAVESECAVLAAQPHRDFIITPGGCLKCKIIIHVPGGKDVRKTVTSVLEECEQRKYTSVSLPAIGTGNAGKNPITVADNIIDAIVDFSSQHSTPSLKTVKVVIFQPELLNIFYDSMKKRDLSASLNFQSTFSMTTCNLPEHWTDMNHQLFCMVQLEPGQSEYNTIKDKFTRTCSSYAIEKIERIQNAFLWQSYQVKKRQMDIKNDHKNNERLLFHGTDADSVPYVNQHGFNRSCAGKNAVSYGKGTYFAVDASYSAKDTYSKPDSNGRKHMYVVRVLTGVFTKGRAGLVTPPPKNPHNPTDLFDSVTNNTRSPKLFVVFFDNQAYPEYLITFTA
# Description: as §1, §2, §3
# [1] = test system: breast tumor cells MDA-MB-436; assay: MDA-MB-436 cell activity test (CellTiter-Glo, 7 days); assay type: cell-based; conditions: Homo sapiens, MDA-MB-436, 168 h, 7 days incubation
# Description: Breast tumor cells MDA-MB-436 were purchased from ATCC, the culture medium was Leibovitz's L-15+10% FBS, and the cells were cultured in a CO2-free incubator at 37° C. On day 1, the cells in the exponential growth phase were collected, and the cell suspension was adjusted to 4000 cells/135 μL with the culture medium. 135 μL of the cell suspension was added to each well of a 96-well cell culture plate and incubated overnight. On day 2, compounds at different concentrations were added, and the plate was placed in the incubator and incubated for 7 days. After the incubation was completed, according to operation instructions for a CellTiter-Glo kit (Promega, G7573), 75 μL of CTG solution, which was already pre-melted and equilibrated to room temperature, was added to each well, and the mixture was uniformly mixed for 2 min using a microplate shaker. The plate was placed at room temperature for 10 min, and then […] were measured using an Envision2104 plate reader (PerkinElmer). The inhibition rate was calculated using formula (1), where RLUcompound was the readout of the drug treated group, RLUcontrol was the average value of the vehicle control group, and RLUblank was the average value of the cell-free well. The IC50 value was calculated using GraphPad Prism software.
# [2] = test system: Human breast cancer MDA-MB-231 cells; assay: MDA-MB-231 cell proliferation inhibition test (CellTiter-Glo, 7 days); assay type: cell-based; conditions: MDA-MB-231, 168 h, 7 days incubation
# Description: The cells in the exponential growth phase were collected, and the cell suspension was adjusted to 1500 cells/135 μL with the culture medium. 135 μL of the cell suspension was added to each well of a 96-well cell culture plate and incubated overnight. On day 2, compounds at different concentrations were added, and the plate was placed in the incubator and incubated for 7 days. After the incubation was completed, according to operation instructions for a CellTiter-Glo kit (Promega, Cat #G7573), 75 μL of CTG solution, which was already pre-melted and equilibrated to room temperature, was added to each well, and the mixture was uniformly mixed for 2 min using a microplate shaker. The plate was placed at room temperature for 10 min, and then […] signal values were measured using an Envision 2104 plate reader (PerkinElmer).
# [3] = Pharmacokinetic test in rats; assay type: in vivo, rat; conditions: male SD rats
# Description: • 1.1 Experimental animals: male SD rats, about 220 g, 6-8 weeks old, 6 rats/compound, purchased from Chengdu Ddossy Experimental Animals Co., Ltd. • 1.2 Experimental design: on the day of the test, 6 SD rats were randomly grouped according to their body weight; the animals were fasted with water available for 12 to 14 h one day before the administration, and were fed 4 h after the administration.
# Before and after the administration, 0.15 mL of blood was taken from the orbit of the animals under isoflurane anesthesia and placed in an EDTAK2 centrifuge tube. The blood was centrifuged at 5000 rpm and 4° C. for 10 min to collect plasma. The blood collection time points for the intravenous administration group and intragastric administration group were: 0, 5 min, 15 min, 30 min, 1 h, 2 h, 4 h, 6 h, 8 h, and 24 h. Before analysis and detection, all samples were stored at −80° C. The samples were analyzed quantitatively by LC-MS/MS.
# [4] = test system: MDA-MB-436 subcutaneous transplanted tumor; assay: Mouse MDA-MB-436 subcutaneous in vivo transplanted tumor model
# Description: Human breast cancer MDA-MB-436 cells were placed in Leibovitz's L-15 medium (supplemented with 10 μg/mL insulin, 16 μg/mL glutathione, 10% fetal bovine serum and 1% double antibody) and cultured at 37° C. Conventional digestion treatment with trypsin was carried out twice a week for passage. When the cell saturation was 80%-90%, and the number reached the requirement, the cells were collected, counted, and inoculated. BALB/c nude mice (from Beijing Vital River Laboratory Animal Technology Co., Ltd.) were subcutaneously inoculated with 0.2 mL (10×10^6) of MDA-MB-436 cells (plus matrigel, with the volume ratio of 1:1) on the right back. When the average tumor volume reached about 180 mm^3, grouping and administration were performed (marked as Day 0). […] The administration frequency was once a day, the administration cycle was 29 days, and the drug withdrawal observation period was set to 14 days. After grouping, the tumor diameter was measured twice a week with a vernier caliper. The formula for calculating the tumor volume was: V=0.5×a×b^2, where a and b represented the long and short diameters of the tumor, respectively.
# [5] = Sprague-Dawley (SD), rat, iv, i.v. 2.5 mg/kg, plasma
# Chain of PARP5B (Q9H2K2 667-1166 limits assumed): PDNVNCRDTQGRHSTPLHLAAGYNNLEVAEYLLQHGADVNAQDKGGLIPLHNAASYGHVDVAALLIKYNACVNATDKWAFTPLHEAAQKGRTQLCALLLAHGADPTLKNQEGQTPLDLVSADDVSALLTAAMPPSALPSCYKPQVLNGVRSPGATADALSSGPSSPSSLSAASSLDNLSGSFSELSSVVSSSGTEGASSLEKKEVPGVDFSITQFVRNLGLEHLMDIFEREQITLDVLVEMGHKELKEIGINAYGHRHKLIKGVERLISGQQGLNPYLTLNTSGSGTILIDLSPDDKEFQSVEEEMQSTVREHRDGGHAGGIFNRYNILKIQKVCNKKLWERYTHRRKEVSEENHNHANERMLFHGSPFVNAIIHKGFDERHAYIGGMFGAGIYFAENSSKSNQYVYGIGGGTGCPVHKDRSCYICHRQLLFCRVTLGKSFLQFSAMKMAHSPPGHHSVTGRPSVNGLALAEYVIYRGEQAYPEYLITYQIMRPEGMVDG
# Chain of PARP5A (O95271 1001-1327 limits assumed): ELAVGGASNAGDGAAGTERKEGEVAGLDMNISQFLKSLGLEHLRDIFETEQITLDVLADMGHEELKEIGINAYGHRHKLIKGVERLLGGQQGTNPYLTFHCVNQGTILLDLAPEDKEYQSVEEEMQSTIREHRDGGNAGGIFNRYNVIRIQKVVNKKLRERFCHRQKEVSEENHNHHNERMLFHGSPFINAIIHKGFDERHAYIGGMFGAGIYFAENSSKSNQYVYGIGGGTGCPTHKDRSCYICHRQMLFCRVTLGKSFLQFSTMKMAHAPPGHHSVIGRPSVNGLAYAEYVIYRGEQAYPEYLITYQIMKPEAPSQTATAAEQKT
smiles,measurement,setting,value
"CCc1cc2ncc(CN3CCN(c4ccc(C(=O)NC5CC5)nc4)CC3)cc2[nH]c1=O [Compound 4, N-cyclopropyl-5-(4-((7-ethyl-6-oxo-5,6-dihydro-1,5-naphthyridin-3-yl)methyl)piperazin-1-yl)picolinamide]",IC50,PARP5A,6.08 µM
same,IC50,PARP5B,0.576 µM
same,IC50,PARP7,5.36 µM
same,IC50,PARP15,4.3 µM
same,inhibition at 10 µM,"[1]; 10 μM, read-out: MDA-MB-436 Max inh. % 10 μM",89.4%
same,IC50,[1]; read-out: MDA-MB-436 cell inhibitory activity IC50,0.002 µM
same,inhibition at 10 µM,"[2]; 10 μM, read-out: MDA-MB-231 Max inh. % 10 μM",66.8%
same,IC50,"[2]; BRCA WT cells, read-out: MDA-MB-231 cell inhibitory activity IC50",15.9 µM
same,AUC(0-t),[3]; [5],46.6 ± 4.75 µg·h/mL
same,clearance,[3]; [5],0.0538 ± 0.00582 L/h/kg
same,Vd,"[3]; Sprague-Dawley (SD), rat, iv, i.v. 2.5 mg/kg, plasma, read-out: Vdss",0.236 ± 0.022 L/kg
same,AUC(0-t),"[3]; Sprague-Dawley (SD), rat, po, i.g. 10 mg/kg, plasma",184 ± 72.3 µg·h/mL
same,F,[3]; i.g. 10 mg/kg,98.8 ± 39%
same,tumor growth after the drug withdrawal,[4]; 14 days drug withdrawal observation period,did not grow again
same,body weight of the animals,"[4]; BALB/c nude mice, once a day, Day 0-10: 1 mg/kg, Day 11-28: 0.1 mg/kg",no significant decrease in the body weight
same,TGI,"[4]; BALB/c nude mice, once a day, Day 0-10: 1 mg/kg, Day 11-28: 0.1 mg/kg, after 28 days of administration",119%
